# According to publication PMC10137255, “Disturbing the Redox Balance Using Buthionine Sulfoximine Radiosensitized Somatostatin Receptor-2 Expressing Pre-Clinical Models to Peptide Receptor Radionuclide Therapy with ^177Lu-DOTATATE” (Cancers, 2023):
# Several values for one entry are separate records, joined by “and”; a condition that tells them apart may be missing. Equal values may be shown once.
# Experiments:
# liver = assay: H&E staining of liver; details: mouse, in vivo
# Experimental: (§1) Liver and kidneys were harvested, fixed in PAXgene Tissue FIX (Qiagen, Hilden, Germany) for 1 day at room temperature and kept at 4 °C in PAXgene Tissue STABILIZER (Qiagen) until they were embedded in paraffin for histological studies. Staining was carried out on 4 μm paraffin-embedded tissue sections subsequently deparaffinized in xylene and rehydrated in decreasing alcohol concentrations. Slides were incubated in Mayer’s hematoxylin for 6 min and subsequently in eosin for 3 min. Slides were mounted using Tissue-Tek Prisma (Sakura, Alphen aan den Rijn, The Netherlands). Digital scans of slides were acquired with Nanozoomer NDP (Hamamatsu Photonics, Shizuoka, Japan) and analysed by an experienced clinical pathologist.
# [1] = tested on: EJM multiple myeloma cell line; details: 5 MBq 177Lu-DOTATATE for 4 h and/or BSO 10^−7 M from the day before irradiation until day 10, crystal violet day 10, % of non-treated, mean ± SEM, n = 12 from 3 independent experiments
# [2] = cited from earlier work
# Experimental: The optimal combination treatment schedule would still have to be determined, which would be the one allowing the use of the minimal effective dose of BSO, i.e., the dose necessary to achieve sufficient tumour GSH depletion to have an efficient tumour radiosensitization, without excessive healthy tissue toxicity. The rapid clearance of BSO (estimated half-life in plasma of less than 2 h) and the rapid rate of GSH turnover would allow one to closely control GSH levels with BSO and allow for a GSH depletion only during tumour irradiation with ^177Lu-DOTATATE, limiting the potential ...
# HBL melanoma cell line = details: 5 MBq 177Lu-DOTATATE for 4 h and/or BSO 10^−7 M from the day before irradiation until day 10, crystal violet day 10, % of non-treated, mean ± SEM, n = 12 from 3 independent experiments
# [3] = tested on: total glutathione in EJM tumours; assay: Total glutathione in EJM tumours; format: in vivo, mouse; details: BSO 10 mM via drinking water (2 mmol/kg/day), summary in discussion
# Experimental: (§2) Mice experiments were approved by the animal ethics committee of Université Libre de Bruxelles (Comité d’Ethique du Bien-Etre Animal (CEBEA)) and performed according to European guidelines. Female athymic nude Foxn1^nu mice (Charles River) (age = 5 to 6 weeks) were subcutaneously injected in the right flank with 1 × 10^6 EJM cells suspended in 100 µL of PBS and matrigel (1:1; Cultrex™ Basement Membrane Extract, Type 3, R&D Systems). The tumours were allowed to grow for 4 weeks before initiating treatments. At a tumour size of approximately 0.5 cm^3, mice were randomized into 4 treatment groups of 10 mice: control, ^177Lu-DOTATATE, BSO and ^177Lu-DOTATATE + BSO. […] All mice were monitored three times a week for body weight and tumour growth using a calliper. Tumour volume (mm^3) was calculated using the formula π/6 × length × width × height. The relative tumour volume was represented and calculated as (tumour volume on measured day)/(tumour volume measured at baseline). […] Another group of mice receiving ^177Lu-DOTATATE alone or in combination with BSO was sacrificed 24, 72 and 168 h post-injection (p.i.) for ex vivo biodistribution studies and early glutathione quantification (4 mice per group per time point) (Figure 1).
# [4] = Water intake and tolerability in mice; details: EJM xenograft nude mice; BSO 10 mM in drinking water; 30 MBq 177Lu-DOTATATE IV
# Experimental: as §2
# [5] = tested on: total glutathione in HBL cells; assay: Total glutathione quantification, HBL; format: cell-based, human; details: 10^−7 M BSO for 18 h, vs non-treated, mean ± SEM, n = 6 from 2 independent experiments
# Experimental: (§3) Total glutathione was assessed in cell lines and mice tissues using the Quantification kit for oxidized and reduced glutathione (Sigma), according to the manufacturer’s instructions. Cells in culture were harvested, washed and then lysed with freeze-thaw cycles and subsequently mixed with 5% 5-sulfosalicylic acid. After centrifugation at 8000× g for 10 min, the supernatant was collected, and the 5-sulfosalicylic acid concentration was reduced to 0.5% with water for glutathione quantification. Tumour, liver and kidneys were harvested, snap-frozen in liquid nitrogen and stored at −70 °C until assayed for glutathione. Tissues were homogenized in 5% 5-sulfosalicylic acid in lysing matrix D tubes (MP Biomedicals) containing ceramic beads using a FastPrep-24 homogenizer (MP Biomedicals, Irvine, CA, USA) and centrifuged at 8000× g for 10 min. The supernatant was collected, and the 5-sulfosalicylic acid concentration was reduced to 0.5% with water for glutathione quantification. The buffer solution was added to samples (either from cell lines or tissues) (in triplicates) in a 96-well plate. […] Absorbance was read at 405 nm using a microplate reader (Thermo Labsystems Multiskan EX, ThermoFisher, Waltham, MA, USA). Total glutathione concentration was determined using a calibration curve.
# [6] = tested on: total glutathione in MIA-PACA-2 cells; assay: Total glutathione quantification, MIA-PACA-2; format: cell-based, human; details: 10^−7 M BSO for 18 h, vs non-treated, mean ± SEM, n = 6 from 2 independent experiments
# Experimental: as §3
# [7] = tested on: total glutathione in HT-29 cells; assay: Total glutathione quantification, HT-29; format: cell-based, human; details: 10^−7 M BSO for 18 h, vs non-treated, n = 6 from 2 independent experiments
# Experimental: as §3
# [8] = tested on: EJM multiple myeloma xenograft; assay: Tumour growth (calliper), EJM xenograft; format: in vivo, mouse; details: 30 MBq 177Lu-DOTATATE IV day 28 and/or 10 mM BSO drinking water 3 weeks, exponential growth fit, [95% CI], 8 to 10 mice per group
# Experimental: as §2
# [9] = tested on: COLO-677 multiple myeloma cell line; details: 5 MBq 177Lu-DOTATATE for 4 h and/or BSO 10^−7 M from the day before irradiation until day 10, crystal violet day 10, % of non-treated, mean ± SEM, n = 12 from 3 independent experiments
# [10] = set-up: method as in PMID 27092812, PMID 8270977, PMID 8558205, PMID 9392620; details: early-phase clinical studies on solid tumours; cited from earlier work
# [11] = tested on: total glutathione in MM162 cells; assay: Total glutathione quantification, MM162; format: cell-based, human; details: 10^−7 M BSO for 18 h, vs non-treated, mean ± SEM, n = 6 from 2 independent experiments
# Experimental: as §3
# [12] = tested on: HT-29 colon adenocarcinoma cell line; details: 5 MBq 177Lu-DOTATATE for 4 h and/or BSO 10^−7 M from the day before irradiation until day 10, crystal violet day 10, % of non-treated, mean ± SEM, n = 12 from 3 independent experiments
# MM162 melanoma cell line = details: 5 MBq 177Lu-DOTATATE for 4 h and/or BSO 10^−7 M from the day before irradiation until day 10, crystal violet day 10, % of non-treated, mean ± SEM, n = 12 from 3 independent experiments
# [13] = tested on: MIA-PACA-2 pancreatic adenocarcinoma cell line; details: 5 MBq 177Lu-DOTATATE for 4 h and/or BSO 10^−7 M from the day before irradiation until day 10, crystal violet day 10, % of non-treated, mean ± SEM, n = 12 from 3 independent experiments
# [14] = tested on: total glutathione in COLO-677 cells; assay: Total glutathione quantification, COLO-677; format: cell-based, human; details: 10^−7 M BSO for 18 h, vs non-treated, n = 6 from 2 independent experiments
# Experimental: as §3
# [15] = tested on: total glutathione in EJM cells; assay: Total glutathione quantification, EJM; format: cell-based, human; details: 10^−7 M BSO for 18 h, vs non-treated, mean ± SEM, n = 6 from 2 independent experiments
# Experimental: as §3
# kidneys = assay: H&E staining of kidneys; details: mouse, in vivo
# Experimental: as §1
# bone marrow [16] = assay: Bone marrow apoptosis assessment (Annexin V/7-AAD); format: in vivo, mouse; details: mice sacrificed 29 to 38 days post-177Lu-DOTATATE injection; Annexin V/7-AAD flow cytometry; mean ± SEM; 3 to 4 mice per group
# Experimental: At the time of sacrifice, bone marrow (BM) was harvested from both femurs (containing hematopoietically active marrow) of the animals. Femurs were excised from each mouse, and then the attached muscle was trimmed from the periosteal surface and the bone was opened at the distal end. BM was isolated using the cytocentrifuge method. In brief, the femur was placed in a 0.5 mL Eppendorf tube pre-punctured with a needle at the base of the tube to form an opening. The 0.5 mL tube was nested within a 1.5 mL Eppendorf tube, and both were centrifuged at 10,000 rpm for 15 s to form a BM pellet at the bottom of the 1.5 mL Eppendorf tube yet to retain the femur within the 0.5 mL tube. • Bone marrow smears and cytological assessment. BM samples were assayed for apoptosis. A 10 min incubation step at 37 °C with NH4Cl was performed for red blood cell lysis. Samples were then centrifuged for 5 min, and the supernatant containing lysed red blood cells was discarded. Samples were then incubated with Annexin-V Binding Buffer (ThermoFisher, Waltham, MA, USA), Annexin V (BD Biosciences, Franklin Lakes, NJ, USA) and 7-AAD (BD Biosciences, Franklin Lakes, NJ, USA) for 15 min at room temperature. Annexin Buffer was added to samples that were subsequently analysed using a MACSQuant Analyzer 10 Flow Cytometer (Miltenyi Biotec, Bergisch Gladbach, Germany).
# bone marrow [17] = assay: Bone marrow smears and cytological assessment; format: in vivo, mouse; details: 29 to 38 days p.i.
# Experimental: At the time of sacrifice, bone marrow (BM) was harvested from both femurs (containing hematopoietically active marrow) of the animals. Femurs were excised from each mouse, and then the attached muscle was trimmed from the periosteal surface and the bone was opened at the distal end. BM was isolated using the cytocentrifuge method. In brief, the femur was placed in a 0.5 mL Eppendorf tube pre-punctured with a needle at the base of the tube to form an opening. The 0.5 mL tube was nested within a 1.5 mL Eppendorf tube, and both were centrifuged at 10,000 rpm for 15 s to form a BM pellet at the bottom of the 1.5 mL Eppendorf tube yet to retain the femur within the 0.5 mL tube. • Bone marrow smears and cytological assessment.
# BM smears were prepared using the push-slide technique. In brief, one drop of BM was placed at one extremity of a glass slide and was then spread in an even film using a second glass slide (held at an angle) as a spreader. The spreader slide was slid forward the length of the slide to produce a smear. Slides were fixed in absolute methanol for 5 min and then air-dried. May-Grunwald–Giemsa staining was used for routine evaluation of BM cytomorphology. […] A qualitative and quantitative cytological evaluation of all the major lineages was performed by an experienced clinical pathologist on 300 to 500 cells. • Bone marrow apoptosis assessment.
# EJM xenograft mice = assay: Ex vivo biodistribution and time-activity curves; format: in vivo, mouse; details: 30 MBq 177Lu-DOTATATE IV ± 10 mM BSO via drinking water, single exponential fit of time-activity curve, n = 1 to 6 mice per group
# Experimental: as §2
compound,measurement,setting,value
"CCCCS(=N)(=O)CC[C@H](N)C(=O)O (stereo partly drawn) [BSO, L-Buthionine-(S,R)-Sulfoximine]",liver histology (H&E),liver,No morphological changes were observed
same,cell survival,[1],did not affect cell lines survival
same,estimated half-life in plasma,[2],less than 2 h
same,cell survival,HBL melanoma cell line,81.2 ± 3.8%
same,tumour GSH depletion,[3],~ 80%
same,water intake,[4],5.6 ± 0.6 mL/day/mouse
same,change in total glutathione levels,[5],−21.5 ± 3.0%
same,change in total glutathione levels,[6],−20.7 ± 3.5%
same,change in total glutathione levels,[7],not affected
same,Tumour doubling time,[8],7.5 days and 7.5 [6.3 – 9.1] days
same,cell survival,[9],did not affect cell lines survival
same,adverse events caused by BSO alone,[10],only grade 1–2 nausea and vomiting
same,change in total glutathione levels,[11],−11.1 ± 3.7%
same,cell survival,[12],did not affect cell lines survival
same,cell survival,MM162 melanoma cell line,did not affect cell lines survival
same,cell survival,[13],87.6 ± 3.8%
same,change in total glutathione levels,[14],not affected
same,change in total glutathione levels,[15],−9.4 ± 2.2%
same,kidney histology (H&E),kidneys,No morphological changes were observed
"C[C@@H](O)[C@H](NC(=O)[C@@H]1CSSC[C@H](NC(=O)[C@@H](Cc2ccccc2)NC(=O)CN2CCN(CC(=O)O)CCN(CC(=O)O)CCN(CC(=O)O)CC2)C(=O)N[C@@H](Cc2ccc(O)cc2)C(=O)N[C@H](Cc2c[nH]c3ccccc23)C(=O)N[C@@H](CCCCN)C(=O)N[C@@H]([C@@H](C)O)C(=O)N1)C(=O)O [^177Lu-DOTATATE, metal not drawn]",liver histology (H&E),liver,No morphological changes were observed
same,BM apoptotic cells,bone marrow [16],33.0 ± 2.8%
same,water intake,[4],5.2 ± 0.5 mL/day/mouse
same,"relative proportion of BM lineages (erythroid, granulocytic, lymphoid), between treatment groups","bone marrow [17]; BM smears, May-Grunwald–Giemsa, 3 to 4 mice per group",no significant differences
same,qualitative assessment of BM smears (morphology),bone marrow [17]; major BM lineages including megakaryocytes,did not show any morphological abnormalities
same,effective half-life in the kidneys,EJM xenograft mice,13.7 h
same,effective half-life in the liver,EJM xenograft mice,24 h
same,kidney histology (H&E),kidneys,No morphological changes were observed
